Numbers after ± are expanded uncertainties. One block for each compound: values may come before it.
Tests used:
[1] = wn = mass fraction of the nth substance listed; conditions: 298.15 K, 101.3 kPa, Liquid
[2] = 101.33 kPa, Liquid

SMILES: CC(=O)[O-].CCCCn1cc[n+](C)c1 [1-butyl-3-methylimidazolium acetate] + CN(C)C=O
- viscosity ([1]; w2 = 0.062): 231 ± 40 mPa·s
- viscosity ([1]; w2 = 0.191): 54 ± 3 mPa·s
- viscosity ([1]; w2 = 0.389): 11 ± 2 mPa·s
- viscosity ([1]; w2 = 0.606): 4 mPa·s

SMILES: CCCCn1cc[n+](C)c1.[Cl-] [1-butyl-3-methylimidazolium chloride]
- viscosity ([2]; 353.15 K): 142 ± 17 mPa·s
- viscosity ([2]; 373.1 K): 68 ± 3 mPa·s
- viscosity ([2]; 393.15 K): 31 ± 2 mPa·s

SMILES: CC(=O)[O-].CCn1cc[n+](C)c1 [1-ethyl-3-methylimidazolium acetate] + O
- viscosity ([1]; w2 = 0.023): 122 ± 13 mPa·s
- viscosity ([1]; w2 = 0.045): 81 ± 5 mPa·s
- viscosity ([1]; w2 = 0.084): 57 ± 3 mPa·s
- viscosity ([1]; w2 = 0.192): 32 ± 2 mPa·s
- viscosity ([1]; w2 = 0.374): 12 ± 2 mPa·s
- viscosity ([1]; w2 = 0.556): 4 mPa·s

SMILES: CCCCn1cc[n+](C)c1.N#CN=C=[N-] [1-butyl-3-methylimidazolium dicyanamide]
- viscosity ([2]; 298.15 K): 31 ± 2 mPa·s
- viscosity ([2]; 353.15 K): 11 ± 2 mPa·s
- viscosity ([2]; 373.1 K): 6 ± 2 mPa·s
- viscosity ([2]; 393.15 K): 4 mPa·s

SMILES: OCCO [1,2-ethanediol] + CC(=O)[O-].CCCCn1cc[n+](C)c1
- viscosity ([1]; w1 = 1): 16.1 ± 2 mPa·s

SMILES: CCn1cc[n+](C)c1.[Cl-] [1-ethyl-3-methylimidazolium chloride]
- viscosity ([2]; 353.15 K): 65 ± 3 mPa·s
- viscosity ([2]; 373.1 K): 27 ± 2 mPa·s
- viscosity ([2]; 393.15 K): 13 ± 2 mPa·s

SMILES: CC(=O)[O-].CCCCn1cc[n+](C)c1 [1-butyl-3-methylimidazolium acetate] + CC#N
- viscosity ([1]; w2 = 0.089): 148 ± 19 mPa·s
- viscosity ([1]; w2 = 0.213): 27 ± 2 mPa·s
- viscosity ([1]; w2 = 0.389): 5 ± 2 mPa·s
- viscosity ([1]; w2 = 0.593): 2 mPa·s

SMILES: CC(=O)[O-].CCCCn1cc[n+](C)c1 [1-butyl-3-methylimidazolium acetate] + O
- viscosity ([1]; w2 = 0.029): 383 ± 88 mPa·s
- viscosity ([1]; w2 = 0.031): 341 ± 74 mPa·s
- viscosity ([1]; w2 = 0.048): 236 ± 41 mPa·s
- viscosity ([1]; w2 = 0.512): 18 ± 2 mPa·s
- viscosity ([1]; w2 = 0.731): 5 ± 2 mPa·s

SMILES: CC(=O)[O-].CCCCn1cc[n+](C)c1 [1-butyl-3-methylimidazolium acetate]
- viscosity ([2]; 298.15 K): 383 ± 85 mPa·s
- viscosity ([2]; 353.15 K): 26 ± 2 mPa·s
- viscosity ([2]; 373.1 K): 15 ± 2 mPa·s
- viscosity ([2]; 393.15 K): 9 ± 2 mPa·s

SMILES: CC(=O)[O-].CCCCn1cc[n+](C)c1 [1-butyl-3-methylimidazolium acetate] + OCCO
- viscosity ([1]; w2 = 0.081): 291 ± 58 mPa·s
- viscosity ([1]; w2 = 0.248): 102 ± 9 mPa·s
- viscosity ([1]; w2 = 0.464): 39 ± 2 mPa·s
- viscosity ([1]; w2 = 0.678): 26 ± 2 mPa·s

SMILES: CCCCCCn1cc[n+](C)c1.[Cl-] [1-hexyl-3-methylimidazolium chloride]
- viscosity ([2]; 353.15 K): 293 ± 57 mPa·s
- viscosity ([2]; 373.1 K): 87 ± 6 mPa·s
- viscosity ([2]; 393.15 K): 43 ± 3 mPa·s

SMILES: CC(=O)[O-].CCn1cc[n+](C)c1 [1-ethyl-3-methylimidazolium acetate]
- viscosity ([2]; 298.15 K): 162 ± 21 mPa·s
- viscosity ([2]; 353.15 K): 17 ± 2 mPa·s
- viscosity ([2]; 373.1 K): 9 ± 2 mPa·s
- viscosity ([2]; 393.15 K): 5 ± 2 mPa·s

Further lines, results first:

- viscosity ([1]; w1 = 1): 0.89 mPa·s
SMILES: O [water] + CC(=O)[O-].CCn1cc[n+](C)c1

- viscosity ([2]; 353.15 K): 375 ± 82 mPa·s
- viscosity ([2]; 373.1 K): 161 ± 21 mPa·s
- viscosity ([2]; 393.15 K): 81 ± 5 mPa·s
SMILES: CCCCCCCC[n+]1ccn(C)c1.[Cl-] [1-methyl-3-octylimidazolium chloride]

- viscosity ([1]; w1 = 1): 0.92 mPa·s
SMILES: CN(C)C=O [dimethylformamide] + CC(=O)[O-].CCCCn1cc[n+](C)c1

- viscosity ([1]; w1 = 1): 0.89 mPa·s
SMILES: O [water] + CC(=O)[O-].CCCCn1cc[n+](C)c1

- viscosity ([1]; w1 = 1): 0.34 mPa·s
SMILES: CC#N [acetonitrile] + CC(=O)[O-].CCCCn1cc[n+](C)c1

Reference: the NIST ThermoML archive (doi:10.1021/je1007235)
